Experimental findings from ChEMBL document CHEMBL4699634, “Series of Novel and Highly Potent Cyclic Peptide PCSK9 Inhibitors Derived from an mRNA Display Screen and Optimized via Structure-Based Design” (J Med Chem, 2020) are described below.

This assay has as its target PCSK9/LDLR (Homo sapiens, UniProt Q8NBP7). Description: Inhibition of avi-tagged-biotinylated human PCSK9 interaction with His-tagged human LDLR EGFa domain by LANCE Ulight Streptavidin based TR-FRET assay. It is filed as protein assay. For orientation: Time-resolved FRET reads energy transfer from a long-lived donor to a nearby acceptor.

Numbered stars: 1 amine (or outer) side, 2 acyl side, 3 side chain; on linkers, the order of the positions; unused ones are H or OH. Bridge positions count the residues as written; N and C are the ends. Square brackets hold non-standard residues; d marks the D form. Peptide text beside a SMILES is read from it. Trp(5-F) = N[C@@H](Cc1c[nH]c2ccc(F)cc12)C(=O)O; mXylylene = c1cc(C[*:1])cc(C[*:2])c1; NMeY = CN[C@@H](Cc1ccc(O)cc1)C(=O)O; NMeH = CN[C@@H](Cc1c[nH]cn1)C(=O)O; αMeP = C[C@@]1(C(=O)O)CCCN1; NMeC = CN[C@@H](CS)C(=O)O; Pip = O=C(O)[C@@H]1CCCCN1; Aze = O=C(O)[C@@H]1CCN1; Mpa = O=C(O)CCS; Sar = CNCC(=O)O

Sequence of PCSK9/LDLR (Q8NBP7 31-152 limits assumed): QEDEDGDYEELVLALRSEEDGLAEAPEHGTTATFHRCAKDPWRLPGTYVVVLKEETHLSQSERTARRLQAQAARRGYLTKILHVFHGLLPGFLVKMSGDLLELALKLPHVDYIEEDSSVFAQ
Sequence of PCSK9/LDLR (Q8NBP7 153-692 limits assumed): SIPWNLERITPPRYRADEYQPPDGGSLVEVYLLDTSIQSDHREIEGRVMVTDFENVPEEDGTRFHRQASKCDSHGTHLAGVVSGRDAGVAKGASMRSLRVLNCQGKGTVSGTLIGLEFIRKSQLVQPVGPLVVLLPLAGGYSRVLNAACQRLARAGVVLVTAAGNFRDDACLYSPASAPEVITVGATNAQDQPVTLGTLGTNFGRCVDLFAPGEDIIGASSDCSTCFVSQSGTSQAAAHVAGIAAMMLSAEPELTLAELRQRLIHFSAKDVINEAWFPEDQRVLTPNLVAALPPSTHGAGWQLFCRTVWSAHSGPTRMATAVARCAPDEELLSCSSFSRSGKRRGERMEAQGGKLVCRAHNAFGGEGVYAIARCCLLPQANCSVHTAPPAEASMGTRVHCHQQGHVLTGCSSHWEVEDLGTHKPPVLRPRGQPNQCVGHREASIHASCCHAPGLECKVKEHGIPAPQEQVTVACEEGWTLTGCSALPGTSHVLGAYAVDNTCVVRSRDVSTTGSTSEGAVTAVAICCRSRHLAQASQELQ
Sequence of PCSK9/LDLR (P01130 22-860 partner limits assumed): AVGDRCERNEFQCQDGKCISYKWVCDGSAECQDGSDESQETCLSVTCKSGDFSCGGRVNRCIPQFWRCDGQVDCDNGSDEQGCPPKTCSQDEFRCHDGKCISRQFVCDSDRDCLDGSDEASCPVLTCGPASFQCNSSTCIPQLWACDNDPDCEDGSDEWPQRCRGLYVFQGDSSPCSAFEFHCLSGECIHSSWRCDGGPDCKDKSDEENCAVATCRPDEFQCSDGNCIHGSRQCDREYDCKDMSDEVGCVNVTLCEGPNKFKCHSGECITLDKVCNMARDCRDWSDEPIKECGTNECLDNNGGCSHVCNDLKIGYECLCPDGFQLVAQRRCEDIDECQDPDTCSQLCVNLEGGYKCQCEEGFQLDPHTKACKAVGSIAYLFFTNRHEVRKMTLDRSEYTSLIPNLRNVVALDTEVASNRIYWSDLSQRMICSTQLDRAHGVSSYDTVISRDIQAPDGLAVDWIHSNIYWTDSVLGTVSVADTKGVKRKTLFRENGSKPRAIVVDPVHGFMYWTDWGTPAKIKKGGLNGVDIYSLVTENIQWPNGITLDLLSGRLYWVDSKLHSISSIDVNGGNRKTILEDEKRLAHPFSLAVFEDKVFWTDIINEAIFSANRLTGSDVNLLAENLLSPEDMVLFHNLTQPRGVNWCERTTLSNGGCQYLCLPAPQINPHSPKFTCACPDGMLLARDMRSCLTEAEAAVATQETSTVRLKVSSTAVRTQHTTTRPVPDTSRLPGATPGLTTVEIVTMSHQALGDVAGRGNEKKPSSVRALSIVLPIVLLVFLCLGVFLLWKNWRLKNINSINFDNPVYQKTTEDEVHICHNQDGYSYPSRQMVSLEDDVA

On to `C[C@@H]1NC(=O)[C@H](Cc2ccc(O)cc2)NC(=O)[C@H](Cc2cnc[nH]2)NC(=O)[C@H](CC(=O)O)NC(=O)[C@H](Cc2c[nH]c3ccc(F)cc23)NC(=O)[C@H](Cc2c[nH]c3ccc(F)cc23)NC(=O)CNC(=O)[C@H](CCCCN)NC(=O)CCSCc2cccc(c2)CSC[C@@H](C(N)=O)NC1=O` ([Mpa]KG[Trp(5-F)][Trp(5-F)]DHYAC-NH2; linker 1-10 via mXylylene), for which the Ki was > 48000 nM.

In the case of `CN1C(=O)[C@@H]2CCCN2C(=O)[C@H](Cc2ccc(O)cc2)NC(=O)[C@H](Cc2cnc[nH]2)NC(=O)[C@H](CC(=O)O)NC(=O)[C@H](Cc2c[nH]c3ccc(F)cc23)NC(=O)[C@H](Cc2c[nH]c3ccc(F)cc23)NC(=O)CNC(=O)[C@H](CCCCN)NC(=O)CCSCc2cccc(c2)CSC[C@H]1C(N)=O` ([Mpa]KG[Trp(5-F)][Trp(5-F)]DHYP[NMeC]-NH2; linker 1-10 via mXylylene), the inhibition constant Ki is > 48000 nM. Take `NCCCC[C@@H]1NC(=O)CCSCc2cccc(c2)CSC[C@@H](C(N)=O)NC(=O)[C@@H]2CCN2C(=O)[C@H](Cc2ccc(O)cc2)NC(=O)[C@H](Cc2cnc[nH]2)NC(=O)[C@H](CC(=O)O)NC(=O)[C@H](Cc2c[nH]c3ccc(F)cc23)NC(=O)[C@H](Cc2c[nH]c3ccc(F)cc23)NC(=O)CNC1=O` ([Mpa]KG[Trp(5-F)][Trp(5-F)]DHY[Aze]C-NH2; linker 1-10 via mXylylene): the affinity corresponds to a Ki of 67.5 nM. With `NCCCC[C@@H]1NC(=O)CCSCc2cccc(c2)CSC[C@@H](C(N)=O)NC(=O)[C@@H]2CCCCN2C(=O)[C@H](Cc2ccc(O)cc2)NC(=O)[C@H](Cc2cnc[nH]2)NC(=O)[C@H](CC(=O)O)NC(=O)[C@H](Cc2c[nH]c3ccc(F)cc23)NC(=O)[C@H](Cc2c[nH]c3ccc(F)cc23)NC(=O)CNC1=O` ([Mpa]KG[Trp(5-F)][Trp(5-F)]DHY[Pip]C-NH2; linker 1-10 via mXylylene) the figure was 969 nM; with `CN1CC(=O)N[C@H](C(N)=O)CSCc2cccc(c2)CSCCC(=O)N[C@@H](CCCCN)C(=O)NCC(=O)N[C@@H](Cc2c[nH]c3ccc(F)cc23)C(=O)N[C@@H](Cc2c[nH]c3ccc(F)cc23)C(=O)N[C@@H](CC(=O)O)C(=O)N[C@@H](Cc2cnc[nH]2)C(=O)N[C@@H](Cc2ccc(O)cc2)C1=O` ([Mpa]KG[Trp(5-F)][Trp(5-F)]DHY[Sar]C-NH2; linker 1-10 via mXylylene), 10700 nM; with `CN1C(=O)[C@H](Cc2cnc[nH]2)NC(=O)[C@H](CC(=O)O)NC(=O)[C@H](Cc2c[nH]c3ccc(F)cc23)NC(=O)[C@H](Cc2c[nH]c3ccc(F)cc23)NC(=O)CNC(=O)[C@H](CCCCN)NC(=O)CCSCc2cccc(c2)CSC[C@@H](C(N)=O)NC(=O)[C@@H]2CCCN2C(=O)[C@@H]1Cc1ccc(O)cc1` ([Mpa]KG[Trp(5-F)][Trp(5-F)]DH[NMeY]PC-NH2; linker 1-10 via mXylylene), 112 nM. For the molecule `CN1C(=O)[C@H](CC(=O)O)NC(=O)[C@H](Cc2c[nH]c3ccc(F)cc23)NC(=O)[C@H](Cc2c[nH]c3ccc(F)cc23)NC(=O)CNC(=O)[C@H](CCCCN)NC(=O)CCSCc2cccc(c2)CSC[C@@H](C(N)=O)NC(=O)[C@@H]2CCCN2C(=O)[C@H](Cc2ccc(O)cc2)NC(=O)[C@@H]1Cc1cnc[nH]1` ([Mpa]KG[Trp(5-F)][Trp(5-F)]D[NMeH]YPC-NH2; linker 1-10 via mXylylene), the Ki was > 48000 nM.

In the case of `C[C@@H]1NC(=O)[C@@H]2CCCN2C(=O)[C@H](Cc2c[nH]c3ccc(F)cc23)NC(=O)[C@H](Cc2c[nH]c3ccc(F)cc23)NC(=O)CNC(=O)[C@H](CCCCN)NC(=O)CCSCc2cccc(c2)CSC[C@@H](C(N)=O)NC(=O)[C@]2(C)CCCN2C(=O)[C@H](Cc2ccc(O)cc2)NC1=O` ([Mpa]KG[Trp(5-F)][Trp(5-F)]PAY[αMeP]C-NH2; linker 1-10 via mXylylene), the Ki was found to be 88.3 nM.

One may read the Ki as the dissociation constant of the complex between target and ligand, obtained from inhibition or displacement. A high value points to a looser hold on the target.
